Laboratory results taken from paper PMC12395308 (ACS Central Science, 2025).

assay: Lipophilicity (logD) by shake flask method; details: not given

Structure (SMILES) | logD
CCCCOC(=O)NNC(=O)c1ccncc1.Cl [prodrug 1e] | 0.8
CC(C)COC(=O)NNC(=O)c1ccncc1.Cl [prodrug 1f] | 0.9
C=CCOC(=O)NNC(=O)c1ccncc1.Cl [prodrug 1g] | 0.2
CCC(C)OC(=O)NNC(=O)c1ccncc1.Cl (stereo not shown) [prodrug 1i] | 0.8
Cl.O=C(NNC(=O)c1ccncc1)Oc1ccccc1 [prodrug 1j] | 0.9

assay: Aqueous stability in acidic and basic buffer (HPLC); details: acidic buffer, post 24 h of incubation

Structure (SMILES) | chemical stability, pH (3.0): percentage of parent remaining
CCCCOC(=O)NNC(=O)c1ccncc1.Cl [prodrug 1e] | 100.0%
CC(C)COC(=O)NNC(=O)c1ccncc1.Cl [prodrug 1f] | 98.17%
C=CCOC(=O)NNC(=O)c1ccncc1.Cl [prodrug 1g] | 96.9%
CCC(C)OC(=O)NNC(=O)c1ccncc1.Cl (stereo not shown) [prodrug 1i] | 100.0%
Cl.O=C(NNC(=O)c1ccncc1)Oc1ccccc1 [prodrug 1j] | 94.6%

same assay, conditions: basic buffer, post 24 h of incubation

Structure (SMILES) | chemical stability, pH (7.6): percentage of parent remaining
CCCCOC(=O)NNC(=O)c1ccncc1.Cl [prodrug 1e] | 100.0%
CC(C)COC(=O)NNC(=O)c1ccncc1.Cl [prodrug 1f] | 100.0%
C=CCOC(=O)NNC(=O)c1ccncc1.Cl [prodrug 1g] | 100.0%
CCC(C)OC(=O)NNC(=O)c1ccncc1.Cl (stereo not shown) [prodrug 1i] | 98.3%
Cl.O=C(NNC(=O)c1ccncc1)Oc1ccccc1 [prodrug 1j] | 58.2%

assay: Bioconversion of prodrugs in plasma, ex vivo (mice); details: 200 μg/mL, 37 °C, ex vivo

Structure (SMILES) | % of prodrug remaining at 20 h, mice plasma
CC(C)COC(=O)NNC(=O)c1ccncc1.Cl [prodrug 1f] | 13.2%
C=CCOC(=O)NNC(=O)c1ccncc1.Cl [prodrug 1g] | highly labile and BLQ
CCC(C)OC(=O)NNC(=O)c1ccncc1.Cl (stereo not shown) [prodrug 1i] | 63.8%
Cl.O=C(NNC(=O)c1ccncc1)Oc1ccccc1 [prodrug 1j] | 85.5%

same assay, conditions: 200 μg/mL, 20 h ex vivo incubation

Structure (SMILES) | eAUC20m–20h in mice plasma, prodrug
CCCCOC(=O)NNC(=O)c1ccncc1.Cl [prodrug 1e] | 0.18 ± 0.036 µg·h/mL
CC(C)COC(=O)NNC(=O)c1ccncc1.Cl [prodrug 1f] | 0.382 ± 0.302 µg·h/mL
C=CCOC(=O)NNC(=O)c1ccncc1.Cl [prodrug 1g] | 0.168 ± 0.091 µg·h/mL
CCC(C)OC(=O)NNC(=O)c1ccncc1.Cl (stereo not shown) [prodrug 1i] | 1.486 ± 0.035 µg·h/mL
Cl.O=C(NNC(=O)c1ccncc1)Oc1ccccc1 [prodrug 1j] | 7.347 ± 0.655 µg·h/mL

assay: Bioconversion of prodrugs in plasma, ex vivo (human); details: 200 μg/mL, 37 °C, ex vivo

Structure (SMILES) | % of prodrug remaining at 20 h, human plasma
C=CCOC(=O)NNC(=O)c1ccncc1.Cl [prodrug 1g] | significant lability and BLQ
CCC(C)OC(=O)NNC(=O)c1ccncc1.Cl (stereo not shown) [prodrug 1i] | 89.1%
Cl.O=C(NNC(=O)c1ccncc1)Oc1ccccc1 [prodrug 1j] | below the quantification limit and BLQ

same assay, conditions: 200 μg/mL, 20 h ex vivo incubation

Structure (SMILES) | eAUC20m–20h in human plasma, prodrug
CCCCOC(=O)NNC(=O)c1ccncc1.Cl [prodrug 1e] | 0.64 ± 0.116 µg·h/mL
CC(C)COC(=O)NNC(=O)c1ccncc1.Cl [prodrug 1f] | 0.854 ± 0.615 µg·h/mL
C=CCOC(=O)NNC(=O)c1ccncc1.Cl [prodrug 1g] | 0.53 ± 0.316 µg·h/mL
CCC(C)OC(=O)NNC(=O)c1ccncc1.Cl (stereo not shown) [prodrug 1i] | 2.788 ± 0.217 µg·h/mL
Cl.O=C(NNC(=O)c1ccncc1)Oc1ccccc1 [prodrug 1j] | 0.752 ± 0.355 µg·h/mL

assay: Chemical stability in neat DMSO (UV spectrophotometer); details: post 24 h of incubation

Structure (SMILES) | chemical stability, DMSO: percentage of parent remaining
CCCCOC(=O)NNC(=O)c1ccncc1.Cl [prodrug 1e] | 100.0%
CC(C)COC(=O)NNC(=O)c1ccncc1.Cl [prodrug 1f] | 100.0%
C=CCOC(=O)NNC(=O)c1ccncc1.Cl [prodrug 1g] | 100.0%
CCC(C)OC(=O)NNC(=O)c1ccncc1.Cl (stereo not shown) [prodrug 1i] | 100.0%
Cl.O=C(NNC(=O)c1ccncc1)Oc1ccccc1 [prodrug 1j] | 100.0%

assay: In vivo plasma exposure after a single oral dose (RACE-PK); details: single oral dose 10 mg/kg

Structure (SMILES) | plasma concentration of AcINH at 20 min
CCC(C)OC(=O)NNC(=O)c1ccncc1.Cl (stereo not shown) [prodrug 1i] | BLQ
Cl.O=C(NNC(=O)c1ccncc1)Oc1ccccc1 [prodrug 1j] | BLQ

same assay, conditions: single oral dose 10 mg/kg, n=3

Structure (SMILES) | plasma eAUC20m–120m (AcINH)
Cl.O=C(NNC(=O)c1ccncc1)Oc1ccccc1 [prodrug 1j] | BLQ ^d

same assay, conditions: single oral dose 10 mg/kg, n=3; 10 mg/kg

Structure (SMILES) | plasma eAUC20m–120m (AcINH)
CCC(C)OC(=O)NNC(=O)c1ccncc1.Cl (stereo not shown) [prodrug 1i] | BLQ and below the limit of quantification and BLQ ^d

assay: Aqueous solubility in Tris HCl buffer (pH 7.4), shake flask method; details: 37 °C, pH 7.4, aqueous buffer, thermodynamic from solid

Structure (SMILES) | solubility at 24 h
Cl.O=C(NNC(=O)c1ccncc1)Oc1ccccc1 [prodrug 1j] | 12.4 mg/mL

same assay, conditions: Tris HCl buffer, 37 °C, pH 7.4, aqueous buffer, thermodynamic from solid

Structure (SMILES) | solubility at 24 h
CCCCOC(=O)NNC(=O)c1ccncc1.Cl [prodrug 1e] | 49.4 mg/mL
CC(C)COC(=O)NNC(=O)c1ccncc1.Cl [prodrug 1f] | 29.3 mg/mL
C=CCOC(=O)NNC(=O)c1ccncc1.Cl [prodrug 1g] | 402 mg/mL
CCC(C)OC(=O)NNC(=O)c1ccncc1.Cl (stereo not shown) [prodrug 1i] | 111 mg/mL

assay: In vivo plasma exposure after repetitive single oral dosing for 10 consecutive days; details: 10th dose, oral, molar equivalent of 10 mg/kg INH

Structure (SMILES) | eAUC20m–6h (AcHz)
CCCCOC(=O)NNC(=O)c1ccncc1.Cl [prodrug 1e] | BLQ ^d
CC(C)COC(=O)NNC(=O)c1ccncc1.Cl [prodrug 1f] | BLQ ^d
C=CCOC(=O)NNC(=O)c1ccncc1.Cl [prodrug 1g] | BLQ ^d
